Experimental data: US9090628B2, “Benzoxazepin compounds selective for PI3K P110 delta and methods of use” (GENENTECH, INC., priority 2011, dated 2015)

How the values were obtained:
[1] = target: p110 delta (Homo sapiens (Human), UniProt O00329); assay: PI3K isoform inhibition assay, p110 delta (fluorescence polarization displacement); format: biochemical
[2] = target: p110 alpha (Homo sapiens (Human), UniProt P42336); assay: PI3K isoform inhibition assay, p110 alpha (for alpha/delta selectivity); settings: ratio of biochemical IC50 values
Sequence of p110 alpha (P42336 whole entry, canonical isoform): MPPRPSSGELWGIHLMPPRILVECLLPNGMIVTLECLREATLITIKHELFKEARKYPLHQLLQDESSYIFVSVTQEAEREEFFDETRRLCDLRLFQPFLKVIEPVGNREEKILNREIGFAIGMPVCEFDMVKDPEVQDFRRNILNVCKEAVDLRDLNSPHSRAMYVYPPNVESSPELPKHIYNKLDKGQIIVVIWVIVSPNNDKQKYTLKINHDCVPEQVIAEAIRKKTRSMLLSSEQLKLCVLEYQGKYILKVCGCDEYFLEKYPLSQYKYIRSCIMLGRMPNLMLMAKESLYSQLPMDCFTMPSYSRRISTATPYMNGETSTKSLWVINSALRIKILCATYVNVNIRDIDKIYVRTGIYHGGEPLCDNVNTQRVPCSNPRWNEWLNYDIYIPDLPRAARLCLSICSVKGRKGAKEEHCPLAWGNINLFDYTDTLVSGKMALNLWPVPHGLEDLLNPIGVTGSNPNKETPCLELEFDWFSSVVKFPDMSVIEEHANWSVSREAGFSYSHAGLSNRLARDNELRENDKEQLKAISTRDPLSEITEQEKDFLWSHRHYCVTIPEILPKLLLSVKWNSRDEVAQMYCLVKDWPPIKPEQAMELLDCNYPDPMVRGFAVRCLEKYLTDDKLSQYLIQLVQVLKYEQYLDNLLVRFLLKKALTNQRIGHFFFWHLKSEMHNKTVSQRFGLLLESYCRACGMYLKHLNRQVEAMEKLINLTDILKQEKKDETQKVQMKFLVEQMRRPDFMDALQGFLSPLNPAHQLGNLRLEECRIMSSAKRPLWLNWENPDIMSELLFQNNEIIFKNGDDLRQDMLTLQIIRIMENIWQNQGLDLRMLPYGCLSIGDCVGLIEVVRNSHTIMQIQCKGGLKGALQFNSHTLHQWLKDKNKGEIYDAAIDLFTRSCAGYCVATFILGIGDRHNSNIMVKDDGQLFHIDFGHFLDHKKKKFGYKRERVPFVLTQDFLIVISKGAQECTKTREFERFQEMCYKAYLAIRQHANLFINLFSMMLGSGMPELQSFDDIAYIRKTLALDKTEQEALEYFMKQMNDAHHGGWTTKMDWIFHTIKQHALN
Sequence of p110 alpha (P27986 whole entry partner, canonical isoform): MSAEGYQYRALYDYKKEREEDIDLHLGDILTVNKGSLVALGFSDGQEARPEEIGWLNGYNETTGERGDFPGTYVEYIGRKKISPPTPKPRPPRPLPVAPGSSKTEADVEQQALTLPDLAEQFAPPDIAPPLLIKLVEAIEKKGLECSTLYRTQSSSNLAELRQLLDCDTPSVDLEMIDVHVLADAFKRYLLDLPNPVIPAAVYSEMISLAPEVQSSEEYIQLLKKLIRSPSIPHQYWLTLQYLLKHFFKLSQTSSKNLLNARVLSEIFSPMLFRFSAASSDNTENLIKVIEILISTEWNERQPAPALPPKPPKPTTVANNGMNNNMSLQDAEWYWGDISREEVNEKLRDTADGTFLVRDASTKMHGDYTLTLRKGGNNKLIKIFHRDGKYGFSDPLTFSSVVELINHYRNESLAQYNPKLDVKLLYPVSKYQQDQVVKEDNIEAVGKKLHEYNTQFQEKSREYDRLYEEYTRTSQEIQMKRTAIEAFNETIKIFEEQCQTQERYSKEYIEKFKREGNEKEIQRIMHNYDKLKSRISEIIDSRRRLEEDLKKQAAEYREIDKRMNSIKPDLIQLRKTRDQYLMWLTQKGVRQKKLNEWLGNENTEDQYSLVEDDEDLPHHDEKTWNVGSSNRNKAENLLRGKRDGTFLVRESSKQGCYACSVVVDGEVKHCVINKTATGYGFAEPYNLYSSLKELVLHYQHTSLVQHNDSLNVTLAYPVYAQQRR
In short: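 Fluorescence polarization displacement of a fluorescent PIP3 probe from GRP-1 detector by PI3K-formed PIP3; p110α/p85α at 40 ng/mL with 10 μM PIP2 substrate.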

Sequence of p110 delta (O00329 whole entry, canonical isoform): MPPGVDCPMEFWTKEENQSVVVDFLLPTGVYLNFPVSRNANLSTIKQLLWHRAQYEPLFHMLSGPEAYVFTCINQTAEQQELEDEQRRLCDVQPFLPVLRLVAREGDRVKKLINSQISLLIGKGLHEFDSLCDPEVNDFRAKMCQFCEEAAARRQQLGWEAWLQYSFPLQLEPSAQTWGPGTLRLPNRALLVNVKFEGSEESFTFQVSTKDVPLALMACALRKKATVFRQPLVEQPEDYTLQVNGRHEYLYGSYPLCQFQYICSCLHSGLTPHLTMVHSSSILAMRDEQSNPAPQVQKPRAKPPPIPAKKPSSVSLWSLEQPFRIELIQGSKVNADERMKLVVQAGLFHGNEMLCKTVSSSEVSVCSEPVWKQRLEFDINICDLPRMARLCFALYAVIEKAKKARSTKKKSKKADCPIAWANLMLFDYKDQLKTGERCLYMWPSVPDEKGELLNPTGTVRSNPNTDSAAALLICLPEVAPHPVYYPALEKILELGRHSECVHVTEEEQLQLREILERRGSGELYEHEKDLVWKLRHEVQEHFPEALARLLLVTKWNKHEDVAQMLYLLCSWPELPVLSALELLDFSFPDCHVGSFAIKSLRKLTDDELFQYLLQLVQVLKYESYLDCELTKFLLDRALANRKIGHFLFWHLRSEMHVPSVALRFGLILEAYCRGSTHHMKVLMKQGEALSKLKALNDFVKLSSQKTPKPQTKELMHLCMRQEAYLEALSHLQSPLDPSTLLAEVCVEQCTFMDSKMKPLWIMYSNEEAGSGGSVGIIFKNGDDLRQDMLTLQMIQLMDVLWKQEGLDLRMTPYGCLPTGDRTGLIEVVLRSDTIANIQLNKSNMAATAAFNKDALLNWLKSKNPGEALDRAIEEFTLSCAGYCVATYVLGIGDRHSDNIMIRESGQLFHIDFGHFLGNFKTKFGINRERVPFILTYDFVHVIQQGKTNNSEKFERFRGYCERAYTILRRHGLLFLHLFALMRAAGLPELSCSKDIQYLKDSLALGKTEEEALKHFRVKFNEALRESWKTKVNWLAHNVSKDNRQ
Sequence of p110 delta (P27986 whole entry partner, canonical isoform): as the sequence (P27986 whole entry partner, canonical isoform) above

Cc1nc(-c2cn3c(n2)-c2ccc(-c4cnn(C)c4C4CC(N(C)C(C)C)CCO4)cc2OCC3)n(C(C)C)n1 (stereo not shown) [Example 344, N-isopropyl-2-[4-[2-(2-isopropyl-5-methyl-1,2,4-triazol-3-yl)-5,6-dihydroimidazo[1,2-d][1,4]benzoxazepin-9-yl]-2-methyl-pyrazol-3-yl]-N-methyl-tetrahydropyran-4-amine]
IC50 [1]: 1.23 nM | IC50 p110 alpha/IC50 p110 delta [2]: 66

Cc1nc(-c2cn3c(n2)-c2cc(C(C)N4CCN(C5COC5)CC4)c(C)cc2OCC3)n(C(C)C)n1 (stereo not shown) [Example 345, 2-(2-isopropyl-5-methyl-1,2,4-triazol-3-yl)-9-methyl-10-[1-[4-(oxetan-3-yl)piperazin-1-yl]ethyl]-5,6-dihydroimidazo[1,2-d][1,4]benzoxazepine]
IC50 [1]: 8.82 nM | IC50 p110 alpha/IC50 p110 delta [2]: 14.3

Cc1nc(-c2cn3c(n2)-c2ccc(N4CCCC4CN(C)C)cc2OCC3)n(C(C)C)n1 (stereo not shown) [Example 346, 1-[1-[2-(2-isopropyl-5-methyl-1,2,4-triazol-3-yl)-5,6-dihydroimidazo[1,2-d][1,4]benzoxazepin-9-yl]pyrrolidin-2-yl]-N,N-dimethyl-methanamine]
IC50 [1]: 0.288 nM | IC50 p110 alpha/IC50 p110 delta [2]: 23

Cc1nc(-c2cn3c(n2)-c2cc([C@@H](C)N4CCN(C(C)(C)CO)CC4)c(F)cc2OCC3)n(C(C)C)n1 [Example 347, (R)-2-(4-(1-(9-fluoro-2-(1-isopropyl-3-methyl-1H-1,2,4-triazol-5-yl)-5,6-dihydrobenzo[f]imidazo[1,2-d][1,4]oxazepin-10-yl)ethyl)piperazin-1-yl)-2-methylpropan-1-ol]
IC50 [1]: 5.53 nM | IC50 p110 alpha/IC50 p110 delta [2]: 47.5

Cc1nc(-c2cn3c(n2)-c2ccc(N4CCCC4CN(C)C)cc2OCC3)n(C(C)C)n1 (stereo not shown) [Example 348, 1-[1-[2-(2-isopropyl-5-methyl-1,2,4-triazol-3-yl)-5,6-dihydroimidazo[1,2-d][1,4]benzoxazepin-9-yl]pyrrolidin-2-yl]-N,N-dimethyl-methanamine]
IC50 [1]: 0.445 nM | IC50 p110 alpha/IC50 p110 delta [2]: 31.4

Cc1nc(-c2cn3c(n2)-c2cc(C(C)N4CCN(CC(C)(C)O)CC4)c(C)cc2OCC3)n(C(C)C)n1 (stereo not shown) [Example 349, 1-[4-[1-[2-(2-isopropyl-5-methyl-1,2,4-triazol-3-yl)-9-methyl-5,6-dihydroimidazo[1,2-d][1,4]benzoxazepin-l0-yl]ethyl]piperazin-1-yl]-2-methyl-propan-2-ol]
IC50 [1]: 4.21 nM | IC50 p110 alpha/IC50 p110 delta [2]: 18.1

Cc1nc(-c2cn3c(n2)-c2cc([C@H](C)N4CCN(C(C)(C)CO)CC4)c(F)cc2OCC3)n(C(C)C)n1 [Example 350, (S)-2-(4-(1-(9-fluoro-2-(1-isopropyl-3-methyl-1H-1,2,4-triazol-5-yl)-5,6-dihydrobenzo[f]imidazo[1,2-d][1,4]oxazepin-10-yl)ethyl)piperazin-1-yl)-2-methylpropan-1-ol]
IC50 [1]: 1.99 nM | IC50 p110 alpha/IC50 p110 delta [2]: 212

Cc1nc(-c2cn3c(n2)-c2cc(-c4ccnn4[C@@H]4CCCN(C5COC5)C4)c(F)cc2OCC3)n(C(C)C)n1 [Example 351, (R)-9-fluoro-2-(1-isopropyl-3-methyl-1H-1,2,4-triazol-5-yl)-10-(1-(1-(oxetan-3-yl)piperidin-3-yl)-1H-pyrazol-5-yl)-5,6-dihydrobenzo[f]imidazo[1,2-d][1,4]oxazepine]
IC50 [1]: 2.21 nM | IC50 p110 alpha/IC50 p110 delta [2]: 16.6

Cc1nc(-c2cn3c(n2)-c2cc(-c4ccnn4[C@H]4CCCN(C5COC5)C4)c(F)cc2OCC3)n(C(C)C)n1 [Example 352, (S)-9-fluoro-2-(1-isopropyl-3-methyl-1H-1,2,4-triazol-5-yl)-10-(1-(1-(oxetan-3-yl)piperidin-3-yl)-1H-pyrazol-5-yl)-5,6-dihydrobenzo[f]imidazo[1,2-d][1,4]oxazepine]
IC50 [1]: 11.5 nM | IC50 p110 alpha/IC50 p110 delta [2]: 18

Cc1nc(-c2cn3c(n2)-c2cc(-c4ccnn4C4CCCN(C(C)(C)CO)C4)c(F)cc2OCC3)n(C(C)C)n1 [Example 353, (R)-2-(3-(5-(9-fluoro-2-(1-isopropyl-3-methyl-1H-1,2,4-triazol-5-yl)-5,6-dihydrobenzo[f]imidazo[1,2-d][1,4]oxazepin-10-yl)-1H-pyrazol-1-yl)piperidin-1-yl)-2-methylpropan-1-ol]
IC50 [1]: 0.314 nM | IC50 p110 alpha/IC50 p110 delta [2]: 151

Cc1nc(-c2cn3c(n2)-c2cc(-c4cnn(C)c4C4CC(N(C)C)CCO4)c(F)cc2OCC3)n(C(C)C)n1 (stereo not shown) [Example 354, 2-[4-[9-fluoro-2-(2-isopropyl-5-methyl-1,2,4-triazol-3-yl)-5,6-dihydroimidazo[1,2-d][1,4]benzoxazepin-10-yl]-2-methyl-pyrazol-3-yl]-N,N-dimethyl-tetrahydropyran-4-amine]
IC50 [1]: 0.66 nM | IC50 p110 alpha/IC50 p110 delta [2]: 14.5

Cc1nc(-c2cn3c(n2)-c2cc(-c4ccnn4C4CCCN(C(C)(C)CO)C4)c(F)cc2OCC3)n(C(C)C)n1 [Example 355, (R)-2-(3-(5-(9-fluoro-2-(1-isopropyl-3-methyl-1H-1,2,4-triazol-5-yl)-5,6-dihydrobenzo[f]imidazo[1,2-d][1,4]oxazepin-10-yl)-1H-pyrazol-1-yl)piperidin-1-yl)-2-methylpropan-1-ol]
IC50 [1]: 0.415 nM | IC50 p110 alpha/IC50 p110 delta [2]: 46.4

COc1cc2c(cc1[C@@H](C)N1CCN(C(C)(C)C)CC1)-c1nc(-c3nc(C)nn3C(C)C)cn1CCO2 [Example 356, (R)-10-(1-(4-tert-butylpiperazin-1-yl)ethyl)-2-(1-isopropyl-3-methyl-1H-1,2,4-triazol-5-yl)-9-methoxy-5,6-dihydrobenzo[f]imidazo[1,2-d][1,4]oxazepine]
IC50 [1]: 1.05 nM | IC50 p110 alpha/IC50 p110 delta [2]: 45.5

COc1cc2c(cc1[C@H](C)N1CCN(C(C)(C)C)CC1)-c1nc(-c3nc(C)nn3C(C)C)cn1CCO2 [Example 357, (S)-10-(1-(4-tert-butylpiperazin-1-yl)ethyl)-2-(1-isopropyl-3-methyl-1H-1,2,4-triazol-5-yl)-9-methoxy-5,6-dihydrobenzo[f]imidazo[1,2-d][1,4]oxazepine]
IC50 [1]: 0.784 nM | IC50 p110 alpha/IC50 p110 delta [2]: 116

Cc1nc(-c2cn3c(n2)-c2cc(-c4cnn(C)c4C4CCCN(C(C)C)C4)c(F)cc2OCC3)n(C(C)C)n1 (stereo not shown) [Example 358, 9-fluoro-2-(2-isopropyl-5-methyl-1,2,4-triazol-3-yl)-10-[5-(1-isopropyl-3-piperidyl)-1-methyl-pyrazol-4-yl]-5,6-dihydroimidazo[1,2-d][1,4]benzoxazepine]
IC50 [1]: 1.56 nM | IC50 p110 alpha/IC50 p110 delta [2]: 67.1

Cc1nc(-c2cn3c(n2)-c2cc(-c4cnn(C)c4C4CCCN(C(C)C)C4)c(F)cc2OCC3)n(C(C)C)n1 (stereo not shown) [Example 359, 9-fluoro-2-(2-isopropyl-5-methyl-1,2,4-triazol-3-yl)-10-[5-(1-isopropyl-3-piperidyl)-1-methyl-pyrazol-4-yl]-5,6-dihydroimidazo[1,2-d][1,4]benzoxazepine]
IC50 [1]: 0.37 nM | IC50 p110 alpha/IC50 p110 delta [2]: 54.1

Cc1nc(-c2cn3c(n2)-c2ccc(-c4cn[nH]c4C4CCCN(C(C)C)C4)cc2OCC3)n(C(C)C)n1 (stereo not shown) [Example 360, 2-(2-isopropyl-5-methyl-1,2,4-triazol-3-yl)-9-[5-(1-isopropyl-3-piperidyl)-1H-pyrazol-4-yl]-5,6-dihydroimidazo[1,2-d][1,4]benzoxazepine]
IC50 [1]: 0.311 nM | IC50 p110 alpha/IC50 p110 delta [2]: 24

Cc1nc(-c2cn3c(n2)-c2ccc(-c4cn[nH]c4C4CCCN(C(C)C)C4)cc2OCC3)n(C(C)C)n1 (stereo not shown) [Example 361, 2-(2-isopropyl-5-methyl-1,2,4-triazol-3-yl)-9-[5-(1-isopropyl-3-piperidyl)-1H-pyrazol-4-yl]-5,6-dihydroimidazo[1,2-d][1,4]benzoxazepine]
IC50 [1]: 0.972 nM | IC50 p110 alpha/IC50 p110 delta [2]: 23.6

Cc1nc(-c2cn3c(n2)-c2cc([C@H](C)N4CCN(C(C)(C)CO)CC4)ncc2OCC3)n(C(C)C)n1 [Example 364, (S)-2-(4-(1-(2-(1-isopropyl-3-methyl-1H-1,2,4-triazol-5-yl)-5,6-dihydroimidazo[1,2-d]pyrido[4,3-f][1,4]oxazepin-10-yl)ethyl)piperazin-1-yl)-2-methylpropan-1-ol]
IC50 [1]: 2.1 nM | IC50 p110 alpha/IC50 p110 delta [2]: 85.9

Cc1nc(-c2cn3c(n2)-c2cc([C@@H](C)N4CCN(C(C)(C)CO)CC4)ncc2OCC3)n(C(C)C)n1 [Example 365, (R)-2-(4-(1-(2-(1-isopropyl-3-methyl-1H-1,2,4-triazol-5-yl)-5,6-dihydroimidazo[1,2-d]pyrido[4,3-f][1,4]oxazepin-10-yl)ethyl)piperazin-1-yl)-2-methylpropan-1-ol]
IC50 [1]: 2.63 nM | IC50 p110 alpha/IC50 p110 delta [2]: 83.2

Cc1nc(-c2cn3c(n2)-c2ccc(-c4cnn(C)c4C4CN(C(C)C)CCN4C)cc2OCC3)n(C(C)C)n1 (stereo not shown) [Example 366, 9-[5-(4-isopropyl-1-methyl-piperazin-2-yl)-1-methyl-pyrazol-4-yl]-2-(2-isopropyl-5-methyl-1,2,4-triazol-3-yl)-5,6-dihydroimidazo[1,2-d][1,4]benzoxazepine]
IC50 [1]: < 0.035 nM | IC50 p110 alpha/IC50 p110 delta [2]: 172

Cc1nc(-c2cn3c(n2)-c2ccc(-c4cnn(C)c4N4CCN(C)[C@H](C(C)C)C4)cc2OCC3)n(C(C)C)n1 [Example 367, 9-[5-[(3R)-3-isopropyl-4-methyl-piperazin-1-yl]-1-methyl-pyrazol-4-yl]-2-(2-isopropyl-5-methyl-1,2,4-triazol-3-yl)-5,6-dihydroimidazo[1,2-d][1,4]benzoxazepine]
IC50 [1]: 0.048 nM | IC50 p110 alpha/IC50 p110 delta [2]: 48.8

COc1cc2c(cc1[C@@H](C)N1CCN(C(C)(C)C)CC1)-c1nc(-c3nc(C)nn3C(C)C)cn1CCO2 [Example 368, 10-[(1R)-1-(4-tert-butylpiperazin-1-yl)ethyl]-2-(2-isopropyl-5-methyl-1,2,4-triazol-3-yl)-9-methoxy-5,6-dihydroimidazo[1,2-d][1,4]benzoxazepine]
IC50 [1]: 1.06 nM | IC50 p110 alpha/IC50 p110 delta [2]: 92.4
